From patent US12077503B2, “Substituted cyclic amides and their use as herbicides” (FMC CORPORATION, priority 2015, dated 2024)
Like-named read-outs stand apart in the source and are kept apart here.

Tests used:
Format in all cases: in vivo
Kochia (Kochia scoparia) [1] = test: Test A preemergence; conditions: Bassia scoparia, pre-emergence, 240 h, preemergence, 0 to 100 scale where 0 is no effect and 100 is complete control, read-out: Kochia plant response rating; for pest or weed control at 125 g/ha: 125 g ai/ha; for pest or weed control at 500 g/ha: 500 g ai/ha
Outline: (§1)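 Seeded soil received test chemicals as a preemergence directed spray, and seedlings at one to two leaves, 2–10 cm tall, received them postemergence, in a non-phytotoxic, surfactant-containing solvent mixture. Pots were held in a greenhouse for approximately 10 d, then rated for injury from 0, no effect, to 100, complete control.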

[2] = system: barnyardgrass (Echinochloa crus-galli); test: Test A preemergence; conditions: Echinochloa crus-galli, pre-emergence, 240 h, preemergence, 0 to 100 scale where 0 is no effect and 100 is complete control, read-out: Barnyardgrass plant response rating; for pest or weed control at 125 g/ha: 125 g ai/ha; for pest or weed control at 500 g/ha: 500 g ai/ha
Outline: as §1

[3] = system: giant foxtail (Setaria faberii); test: Test A preemergence; conditions: Setaria faberi, pre-emergence, 240 h, preemergence, 0 to 100 scale where 0 is no effect and 100 is complete control, read-out: Foxtail, Giant plant response rating; for pest or weed control at 125 g/ha: 125 g ai/ha; for pest or weed control at 500 g/ha: 500 g ai/ha
Outline: as §1

[4] = system: pigweed (Amaranthus retroflexus); test: Test A preemergence; conditions: Amaranthus retroflexus, pre-emergence, 240 h, preemergence, 0 to 100 scale where 0 is no effect and 100 is complete control, read-out: Pigweed plant response rating; for pest or weed control at 125 g/ha: 125 g ai/ha; for pest or weed control at 500 g/ha: 500 g ai/ha
[5] = system: ragweed (common ragweed, Ambrosia elatior); test: Test A preemergence; conditions: Ambrosia artemisiifolia, pre-emergence, 240 h, preemergence, 0 to 100 scale where 0 is no effect and 100 is complete control, read-out: Ragweed plant response rating; for pest or weed control at 125 g/ha: 125 g ai/ha; for pest or weed control at 500 g/ha: 500 g ai/ha
Outline: as §1

[6] = system: ryegrass, Italian (Italian ryegrass, Lolium multiflorum); test: Test A preemergence; conditions: Lolium multiflorum, pre-emergence, 240 h, preemergence, 0 to 100 scale where 0 is no effect and 100 is complete control, read-out: Ryegrass, Italian plant response rating; for pest or weed control at 125 g/ha: 125 g ai/ha; for pest or weed control at 500 g/ha: 500 g ai/ha
Outline: as §1

[7] = system: Galium (catchweed bedstraw, Galium aparine); test: Test A postemergence; conditions: Galium, post-emergence, 240 h, postemergence; for pest or weed control at 125 g/ha: 125 g ai/ha, visual injury vs untreated controls after approx. 10 d, 0 = no effect, 100 = complete control, read-out: Galium plant response rating (0 to 100 scale); for pest or weed control at 500 g/ha: 500 g ai/ha, 0 to 100 scale, 0 is no effect, 100 is complete control, read-out: Galium plant response rating
Outline: as §1

Kochia (Kochia scoparia) [8] = test: Test A postemergence; conditions: Bassia scoparia, post-emergence, 240 h, postemergence; for pest or weed control at 125 g/ha: 125 g ai/ha, visual injury vs untreated controls after approx. 10 d, 0 = no effect, 100 = complete control, read-out: Kochia plant response rating (0 to 100 scale); for pest or weed control at 500 g/ha: 500 g ai/ha, 0 to 100 scale, 0 is no effect, 100 is complete control, read-out: Kochia plant response rating
Outline: as §1

[9] = system: barnyardgrass (Echinochloa crus-galli); test: Test A postemergence; conditions: Echinochloa crus-galli, post-emergence, 240 h, postemergence; for pest or weed control at 125 g/ha: 125 g ai/ha, visual injury vs untreated controls after approx. 10 d, 0 = no effect, 100 = complete control, read-out: Barnyardgrass plant response rating (0 to 100 scale); for pest or weed control at 500 g/ha: 500 g ai/ha, 0 to 100 scale, 0 is no effect, 100 is complete control, read-out: Barnyardgrass plant response rating
Outline: as §1

corn (Zea mays) = test: Test A postemergence; conditions: Zea mays, post-emergence, 240 h, postemergence; for plant injury at 125 g/ha: 125 g ai/ha, visual injury vs untreated controls after approx. 10 d, 0 = no effect, 100 = complete control, read-out: Corn plant response rating (0 to 100 scale); for plant injury at 500 g/ha: 500 g ai/ha, 0 to 100 scale, 0 is no effect, 100 is complete control, read-out: Corn plant response rating
Outline: as §1

[10] = system: pigweed (Amaranthus retroflexus); test: Test A postemergence; conditions: Amaranthus retroflexus, post-emergence, 240 h, postemergence; for pest or weed control at 125 g/ha: 125 g ai/ha, visual injury vs untreated controls after approx. 10 d, 0 = no effect, 100 = complete control, read-out: Pigweed plant response rating (0 to 100 scale); for pest or weed control at 500 g/ha: 500 g ai/ha, 0 to 100 scale, 0 is no effect, 100 is complete control, read-out: Pigweed plant response rating
Outline: as §1

[11] = system: barnyardgrass (Echinochloa crus-galli); test: Test B flooded paddy test; conditions: Echinochloa crus-galli, 250 g ai/ha, Flood; 0 to 100 scale where 0 is no effect and 100 is complete control; read-out: Barnyardgrass plant response rating
Outline: (§2)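 Greenhouse paddy pots with 2-leaf stage plants received compound by direct addition to floodwater 3 cm deep, kept at that level. Scored visually at 13–15 d versus controls (0 no effect; 100 complete control).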

[12] = system: ducksalad (Heteranthera limosa); test: Test B flooded paddy test; conditions: Heteranthera limosa, 250 g ai/ha, Flood; 0 to 100 scale where 0 is no effect and 100 is complete control; read-out: Ducksalad plant response rating
Outline: as §2

rice (Oryra sativa) = test: Test B flooded paddy test; conditions: Oryza sativa, 250 g ai/ha, Flood; 0 to 100 scale where 0 is no effect and 100 is complete control; read-out: Rice plant response rating
Outline: as §2

[13] = system: sedge, umbrella (small-flower umbrella sedge, Cyperus difformis); test: Test B flooded paddy test; conditions: Cyperus difformis, 250 g ai/ha, Flood; 0 to 100 scale where 0 is no effect and 100 is complete control; read-out: Sedge, Umbrella plant response rating
Outline: as §2

[14] = visual injury rating, approximately 10 d

CCc1ccc([C@H]2CNC(=O)[C@@H]2C(=O)Nc2ccccc2SC)cc1 [Compound 1178]
pest or weed control at 125 g/ha (Kochia (Kochia scoparia) [1]; approx. 10 d): 40%
pest or weed control at 500 g/ha (Kochia (Kochia scoparia) [1]): 70%
pest or weed control at 125 g/ha ([2]; approx. 10 d): 20%
pest or weed control at 500 g/ha [2]: 50%
pest or weed control at 125 g/ha ([3]; approx. 10 d): 20%
pest or weed control at 500 g/ha [3]: 70%
pest or weed control at 125 g/ha ([4]; approx. 10 d): 20%
pest or weed control at 500 g/ha [4]: 50%
pest or weed control at 125 g/ha ([5]; approx. 10 d): 0%
pest or weed control at 500 g/ha [5]: 50%
pest or weed control at 125 g/ha ([6]; approx. 10 d): 0%
pest or weed control at 500 g/ha [6]: 20%
pest or weed control at 125 g/ha [7]: 30%
pest or weed control at 500 g/ha [7]: 30%
pest or weed control at 125 g/ha (Kochia (Kochia scoparia) [8]): 20%
pest or weed control at 500 g/ha (Kochia (Kochia scoparia) [8]): 40%
pest or weed control at 125 g/ha [9]: 0%
pest or weed control at 500 g/ha [9]: 30%
plant injury at 125 g/ha (corn (Zea mays)): 0%
plant injury at 500 g/ha (corn (Zea mays)): 0%
pest or weed control at 125 g/ha [10]: 0%
pest or weed control at 500 g/ha [10]: 0%
pest or weed control at 250 g/ha [11]: 20%
pest or weed control at 250 g/ha [12]: 90%
pest or weed control at 250 g/ha (rice (Oryra sativa)): 20%
pest or weed control at 250 g/ha [13]: 0%

O=C1NC[C@H](c2nccs2)[C@H]1C(=O)Nc1cccc(F)c1F [Compound 1182]
pest or weed control at 125 g/ha (Kochia (Kochia scoparia) [1]; approx. 10 d): 0%
pest or weed control at 500 g/ha (Kochia (Kochia scoparia) [1]): 0%
pest or weed control at 125 g/ha ([2]; approx. 10 d): 0%
pest or weed control at 500 g/ha [2]: 0%
pest or weed control at 125 g/ha ([3]; approx. 10 d): 0%
pest or weed control at 500 g/ha [3]: 0%
pest or weed control at 125 g/ha ([4]; approx. 10 d): 0%
pest or weed control at 500 g/ha [4]: 0%
pest or weed control at 125 g/ha ([5]; approx. 10 d): 0%
pest or weed control at 500 g/ha [5]: 0%
pest or weed control at 125 g/ha ([6]; approx. 10 d): 0%
pest or weed control at 500 g/ha [6]: 0%
pest or weed control at 125 g/ha [7]: 0%
pest or weed control at 500 g/ha [7]: 0%
pest or weed control at 125 g/ha (Kochia (Kochia scoparia) [8]): 0%
pest or weed control at 500 g/ha (Kochia (Kochia scoparia) [8]): 0%
pest or weed control at 125 g/ha [9]: 0%
pest or weed control at 500 g/ha [9]: 0%
plant injury at 125 g/ha (corn (Zea mays)): 0%
plant injury at 500 g/ha (corn (Zea mays)): 0%
pest or weed control at 125 g/ha [10]: 0%
pest or weed control at 500 g/ha [10]: 0%
pest or weed control at 250 g/ha [11]: 0%
pest or weed control at 250 g/ha [12]: 0%
pest or weed control at 250 g/ha (rice (Oryra sativa)): 0%
pest or weed control at 250 g/ha [13]: 0%

CSc1ccccc1NC(=O)[C@H]1C(=O)N(C)C[C@@H]1c1ccc(C(F)(F)F)nc1 [Compound 1198]
pest or weed control at 125 g/ha (Kochia (Kochia scoparia) [1]; [14]): 80%
pest or weed control at 500 g/ha (Kochia (Kochia scoparia) [1]): 80%
pest or weed control at 125 g/ha [2, 14]: 70%
pest or weed control at 500 g/ha [2]: 100%
pest or weed control at 125 g/ha [3, 14]: 100%
pest or weed control at 500 g/ha [3]: 100%
pest or weed control at 125 g/ha [4, 14]: 70%
pest or weed control at 500 g/ha [4]: 100%
pest or weed control at 125 g/ha [5, 14]: 70%
pest or weed control at 500 g/ha [5]: 100%
pest or weed control at 125 g/ha [6, 14]: 30%
pest or weed control at 500 g/ha [6]: 60%
pest or weed control at 125 g/ha [7]: 40%
pest or weed control at 500 g/ha [7]: 50%
pest or weed control at 125 g/ha (Kochia (Kochia scoparia) [8]): 60%
pest or weed control at 500 g/ha (Kochia (Kochia scoparia) [8]): 60%
pest or weed control at 125 g/ha [9]: 80%
pest or weed control at 500 g/ha [9]: 90%
plant injury at 125 g/ha (corn (Zea mays)): 0%
plant injury at 500 g/ha (corn (Zea mays)): 20%
pest or weed control at 125 g/ha [10]: 40%
pest or weed control at 500 g/ha [10]: 70%
pest or weed control at 250 g/ha [11]: 20%
pest or weed control at 250 g/ha [12]: 40%
pest or weed control at 250 g/ha (rice (Oryra sativa)): 0%
pest or weed control at 250 g/ha [13]: 30%

CN1C[C@H](c2ccc(C#N)cc2)[C@@H](C(=O)Nc2ccccc2F)C1=O [Compound 1207]
pest or weed control at 125 g/ha (Kochia (Kochia scoparia) [1]; [14]): 30%
pest or weed control at 500 g/ha (Kochia (Kochia scoparia) [1]): 90%
pest or weed control at 125 g/ha [2, 14]: 60%
pest or weed control at 500 g/ha [2]: 100%
pest or weed control at 125 g/ha [3, 14]: 80%
pest or weed control at 500 g/ha [3]: 100%
pest or weed control at 125 g/ha [4, 14]: 0%
pest or weed control at 500 g/ha [4]: 60%
pest or weed control at 125 g/ha [5, 14]: 30%
pest or weed control at 500 g/ha [5]: 90%
pest or weed control at 125 g/ha [6, 14]: 0%
pest or weed control at 500 g/ha [6]: 20%
pest or weed control at 125 g/ha [7]: 20%
pest or weed control at 500 g/ha [7]: 40%
pest or weed control at 125 g/ha (Kochia (Kochia scoparia) [8]): 20%
pest or weed control at 500 g/ha (Kochia (Kochia scoparia) [8]): 60%
pest or weed control at 125 g/ha [9]: 70%
pest or weed control at 500 g/ha [9]: 100%
plant injury at 125 g/ha (corn (Zea mays)): 0%
plant injury at 500 g/ha (corn (Zea mays)): 0%
pest or weed control at 125 g/ha [10]: 0%
pest or weed control at 500 g/ha [10]: 20%
pest or weed control at 250 g/ha [11]: 0%
pest or weed control at 250 g/ha [12]: 100%
pest or weed control at 250 g/ha (rice (Oryra sativa)): 0%
pest or weed control at 250 g/ha [13]: 0%
